According to patent US20230146455A1, “TREATMENT OF INFLAMMATORY DISEASES WITH PEPTIDES AND PHARMACEUTICAL COMPOSITIONS” (Yuyu Pharma, Inc., priority 2020, published 2023):
Several values for one entry are separate records, joined by “and”; a condition that tells them apart may be missing. Equal entries are not always repeated. Where a SMILES comes first, the peptide text is derived from it. [ ]: non-standard residue; d: D form. Hyp = O=C(O)[C@@H]1C[C@@H](O)CN1

Experiments:
Type in all cases: cell-based, human
[1] = tested on: IL-8/CXCL8; test: Example 8 main study Luminex, LPS hPBMCs: IL-8/CXCL8
Description: (§1) Human PBMCs were pretreated with YY-101, YDE-011, YDE-043 or reference compound; Xiidra® at various concentration (ranging from […] to 500 nM) for 2 h before stimulation. An equal volume of 0.5% DMSO was used as a vehicle control. Then, the cells were treated with LPS at 5 ug/ml, which was selected based on the pilot study. The supernatants from treated cells were harvested at 24 h and placed in a 96 well for Luminex cytokine & chemokine profiling using a Luminex 200 multiplex assay (Luminex; R&D system, USA).
(§2) The main study arm with triplicate wells per group in a 24-well plate: • 1. Blank • 2. PBMC: 0.5% DMSO • 3. PBMC+LPS (5 ug/ml) • 4. PBMC+YY-101 500 nM • 5. PBMC+YY-101 50 nM • 6. PBMC+YY-101 5 nM • 7. PBMC+YY-101 0.5 nM • 8. PBMC+LPS (5 ug/ml)+Xiidra® 500 nM • 9. PBMC+LPS (5 ug/ml)+Xiidra® 50 nM • 10. PBMC+LPS (5 ug/ml)+Xiidra® 5 nM • 11. PBMC+LPS (5 ug/ml)+Xiidra® 0.5 nM • 12. PBMC+LPS (5 ug/ml)+Xiidra® 0.05 nM • 13. PBMC+LPS (5 ug/ml)+Xiidra® 0.005 nM • 14. PBMC+LPS (5 ug/ml)+YY-101 500 nM • 15. PBMC+LPS (5 ug/ml)+YY-101 50 nM • 16. PBMC+LPS (5 ug/ml)+YY-101 5 nM • 17. PBMC+LPS (5 ug/ml)+YY-101 0.5 nM • 18. PBMC+LPS (5 ug/ml)+YY-101 0.05 nM • 19. PBMC+LPS (5 ug/ml)+YY-101 0.005 nM • 20. PBMC+LPS (5 ug/ml)+YDE-011 500 nM • 21. PBMC+LPS (5 ug/ml)+YDE-011 50 nM • 22. PBMC+LPS (5 ug/ml)+YDE-011 5 nM • 23. PBMC+LPS (5 ug/ml)+YDE-011 0.5 nM • 24. PBMC+LPS (5 ug/ml)+YDE-011 0.05 nM • 25. PBMC+LPS (5 ug/ml)+YDE-011 0.005 nM • 26. PBMC+LPS (5 ug/ml)+YDE-043 500 nM • 27. PBMC+LPS (5 ug/ml)+YDE-043 50 nM • 28. PBMC+LPS (5 ug/ml)+YDE-043 5 nM • 29. PBMC+LPS (5 ug/ml)+YDE-043 0.5 nM • 30. PBMC+LPS (5 ug/ml)+YDE-043 0.05 nM • 31. PBMC+LPS (5 ug/ml)+YDE-043 0.005 nM
(§3) Multiplex assay was used to measure 30 cytokines and chemokines. The 1:200 diluted cell supernatant and serial dilution of the standard were dispensed into a 96 well plate at 50 ul/well. Then, the pre-mixed cocktail of antibody-coated magnetic beads was dispensed at 50 ul/well and incubated at room temperature for 2 h in a horizontal orbital microplate shaker at 800±500 rpm. The beads were washed using a magnetic device to prevent loss. The biotin-antibody was dispensed in 50 ul of each well and incubated at room temperature for 1 h in a shaker at 800±500 rpm. After washing, streptavidin-PE was added at 50 ul/well and incubated at room temperature for 30 min in a shaker under the same conditions. Finally, after washing, wash buffer (100 ul/well) was added to the plate and incubated in a shaker for 2 min. The Luminex™ 200 setting were set according to the manufacturer's protocol. The data was calculated with a standard five-parameter logistic nonlinear regression analysis of the data (xPonent software 4.2, USA). Results were presented as concentration (ng/ml or pg/ml).

[2] = tested on: IL-10; test: Example 8 main study Luminex, LPS hPBMCs: IL-10; settings: for IL-10 Concentration: individual replicates; for IL-10 Concentration (pg/ml), Mean: mean of replicates
Description: as §1, §2, §3

[3] = tested on: IL-1 alpha/IL-1F1; test: Example 8 main study Luminex, LPS hPBMCs: IL-1 alpha/IL-1F1; settings: PBMC + LPS(5 ug/ml) + test article 0.005 nM; Mean
Description: as §1, §2, §3

[4] = PBMC + LPS(5 ug/ml) + test article 0.005 nM
[5] = PBMC + LPS(5 ug/ml) + test article 0.05 nM
[6] = PBMC + LPS(5 ug/ml) + test article 0.5 nM
[7] = PBMC + LPS(5 ug/ml) + test article 5 nM
[8] = PBMC + LPS(5 ug/ml) + test article 50 nM
[9] = PBMC + LPS(5 ug/ml) + test article 500 nM
[10] = at as low as 5 μM, LPS 5 ug/mL 24 hrs

CC(C)C[C@H](NC(=O)CNC(=O)[C@H](CC(=O)O)NC(=O)[C@H](CCC(N)=O)NC(=O)CNC(=O)[C@@H]1C[C@@H](O)CN1)C(=O)N[C@@H](C)C(=O)NCC(=O)N1CCC[C@H]1C(=O)N[C@@H](CCCCN)C(=O)O [YY-101] (H-[Hyp]GQDGLAGPK-OH; N-terminus and C-terminus assumed)
IL-8/CXCL8 Concentration, Mean [1, 4]: 58481.9 pg/mL
IL-8/CXCL8 Concentration ([1]; PBMC + LPS(5 ug/ml) + test article 0.005 nM, single replicates (1st, 2nd, 3rd)): 61546.6 pg/mL and 56884.9 pg/mL and 57014.3 pg/mL
IL-8/CXCL8 Concentration, Mean [1, 5]: 59990.6 pg/mL
IL-8/CXCL8 Concentration ([1]; PBMC + LPS(5 ug/ml) + test article 0.05 nM, single replicates (1st, 2nd, 3rd)): 57359.8 pg/mL and 60536.4 pg/mL and 62075.6 pg/mL
IL-8/CXCL8 Concentration, Mean [1, 6]: 60251.0 pg/mL
IL-8/CXCL8 Concentration ([1]; PBMC + LPS(5 ug/ml) + test article 0.5 nM, single replicates (1st, 2nd, 3rd)): 60909.2 pg/mL and 57900.7 pg/mL and 61943.2 pg/mL
IL-8/CXCL8 Concentration, Mean [1, 7]: 57315.8 pg/mL
IL-8/CXCL8 Concentration ([1]; PBMC + LPS(5 ug/ml) + test article 5 nM, single replicates (1st, 2nd, 3rd)): 55583.6 pg/mL and 55980.8 pg/mL and 60383.1 pg/mL
IL-8/CXCL8 Concentration, Mean [1, 8]: 54680.4 pg/mL
IL-8/CXCL8 Concentration ([1]; PBMC + LPS(5 ug/ml) + test article 50 nM, single replicates (1st, 2nd, 3rd)): 54759.1 pg/mL and 53065.0 pg/mL and 56217.2 pg/mL
IL-8/CXCL8 Concentration, Mean [1, 9]: 58292.3 pg/mL
IL-8/CXCL8 Concentration ([1]; PBMC + LPS(5 ug/ml) + test article 500 nM, single replicates (1st, 2nd, 3rd)): 60492.6 pg/mL and 59945.6 pg/mL and 54438.6 pg/mL
IL-8/CXCL8 Concentration, Mean ([1]; PBMC + test article 0.5 nM, no LPS): 3635.9 pg/mL
IL-8/CXCL8 Concentration ([1]; PBMC + test article 0.5 nM, no LPS, single replicates (1st, 2nd)): 1970.8 pg/mL and 5300.9 pg/mL
IL-8/CXCL8 Concentration, Mean ([1]; PBMC + test article 5 nM, no LPS): 2809.1 pg/mL
IL-8/CXCL8 Concentration ([1]; PBMC + test article 5 nM, no LPS, single replicates (1st, 2nd)): 3848.8 pg/mL and 1769.4 pg/mL
IL-8/CXCL8 Concentration, Mean ([1]; PBMC + test article 0.05 uM, no LPS): 8117.7 pg/mL
IL-8/CXCL8 Concentration ([1]; PBMC + test article 0.05 uM, no LPS, single replicates (1st, 2nd)): 13586.7 pg/mL and 2648.7 pg/mL
IL-8/CXCL8 Concentration, Mean ([1]; PBMC + test article 50 nM, no LPS): 1630.9 pg/mL
IL-8/CXCL8 Concentration ([1]; PBMC + test article 50 nM, no LPS, single replicates (1st, 2nd)): 2009.8 pg/mL and 1252.1 pg/mL
IL-8/CXCL8 Concentration, Mean ([1]; PBMC + test article 500 nM, no LPS): 1641.8 pg/mL
IL-8/CXCL8 Concentration ([1]; PBMC + test article 500 nM, no LPS, single replicates (1st, 2nd)): 1297.1 pg/mL and 1986.4 pg/mL
LPS-induced IL-8 (in words) [1, 10]: significantly reduced
IL-10 Concentration [2, 4]: 832.3 pg/mL and 677.1 pg/mL and 780.9 pg/mL
IL-10 Concentration (pg/ml), Mean [2, 4]: 763.4 pg/mL
IL-10 Concentration [2, 5]: 806.6 pg/mL and 1121.8 pg/mL and 883.3 pg/mL
IL-10 Concentration (pg/ml), Mean [2, 5]: 937.2 pg/mL
IL-10 Concentration [2, 6]: 870.5 pg/mL and 703.2 pg/mL and 716.2 pg/mL
IL-10 Concentration (pg/ml), Mean [2, 6]: 763.3 pg/mL
IL-10 Concentration [2, 7]: 857.8 pg/mL and 934.0 pg/mL and 1009.5 pg/mL
IL-10 Concentration (pg/ml), Mean [2, 7]: 933.8 pg/mL
IL-10 Concentration [2, 8]: 651.0 pg/mL and 845.0 pg/mL and 793.8 pg/mL
IL-10 Concentration (pg/ml), Mean [2, 8]: 763.3 pg/mL
IL-10 Concentration [2, 9]: 832.3 pg/mL and 883.3 pg/mL and 755.1 pg/mL
IL-10 Concentration (pg/ml), Mean [2, 9]: 823.5 pg/mL
IL-10 Concentration ([2]; PBMC + test article 0.5 nM, no LPS, dilution 200): <2.59 pg/mL
IL-10 Concentration ([2]; PBMC + test article 5 nM, no LPS, dilution 200): <2.59 pg/mL
IL-10 Concentration ([2]; PBMC + test article 0.05 uM, no LPS, dilution 200): <2.59 pg/mL
IL-10 Concentration ([2]; PBMC + test article 50 nM, no LPS, dilution 200): <2.59 pg/mL
IL-10 Concentration ([2]; PBMC + test article 500 nM, no LPS, dilution 200): <2.59 pg/mL
LPS-induced IL-10 (in words) [2, 10]: significantly reduced
IL-1 alpha/IL-1F1 Concentration [3]: 424.2 pg/mL
